Measured values published in US9302999B2, “Substituted triazoles as herbicides” (E. I. DU PONT DE NEMOURS AND COMPANY, priority 2012, dated 2016).
Read-outs that look alike come from different tables or passages of the source.

Tests used:
Format in all cases: in vivo
[1] = test system: foxtail, giant (giant foxtail, Setaria faberii); assay: Test A pre-/postemergence: foxtail, giant; details: Setaria faberi, 240 h; for pest or weed control at 125 g/ha: 125 g ai/ha; for pest or weed control at 500 g/ha: 500 g ai/ha
Outline: (§1)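 Whole-plant greenhouse assay in loam/sand. Preemergence directed soil spray plus simultaneous postemergence spray (one- to two-leaf stage, 2–10 cm). Rated visually ~10 days later, 0 = no effect, 100 = complete control.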

[2] = test system: winter wheat (Triticum aestivum); assay: Test C pre-/postemergence: winter wheat
Outline: (§2)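 Preemergence on seeds in loam/sand, postemergence on 2–18 cm (1–4-leaf) plants in peat-based medium; compounds in non-phytotoxic solvent with surfactant. After 13–15 days in greenhouse, visual rating versus controls, 0 (no effect) to 100 (complete control).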

corn (Zea mays) = assay: Test C pre-/postemergence: corn
Outline: as §2

[3] = test system: johnsongrass (Sorghum halepense); assay: Test C pre-/postemergence: johnsongrass
Outline: as §2

[4] = test system: wheat (Triticum aestivum); assay: Test A pre-/postemergence: wheat; details: Triticum aestivum, 240 h; for plant injury at 125 g/ha: 125 g ai/ha; for plant injury at 500 g/ha: 500 g ai/ha
Outline: as §1

[5] = test system: pigweed (Amaranthus retroflexus); assay: Test A pre-/postemergence: pigweed; details: Amaranthus retroflexus, 240 h; for pest or weed control at 125 g/ha: 125 g ai/ha; for pest or weed control at 500 g/ha: 500 g ai/ha
Outline: as §1

[6] = test system: morningglory (Ipomoea spp.); assay: Test A pre-/postemergence: morningglory; details: Ipomoea, 240 h; for pest or weed control at 125 g/ha: 125 g ai/ha; for pest or weed control at 500 g/ha: 500 g ai/ha
Outline: as §1

[7] = test system: barnyardgrass (Echinochloa crus-galli); assay: Test A pre-/postemergence: barnyardgrass; details: Echinochloa crus-galli, 240 h; for pest or weed control at 125 g/ha: 125 g ai/ha; for pest or weed control at 500 g/ha: 500 g ai/ha
Outline: as §1

[8] = test system: nutsedge, yellow (yellow nutsedge, Cyperus esculentus); assay: Test C pre-/postemergence: nutsedge, yellow
Outline: as §2

[9] = test system: velvetleaf (Abutilon theophrasti); assay: Test C pre-/postemergence: velvetleaf
Outline: as §2

[10] = test system: chickweed (common chickweed, Stellaria media); assay: Test C postemergence: chickweed
Outline: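 Visual 0–100 injury score vs untreated controls (0 none, 100 complete control), taken 13–15 d after treatment. Postemergence spray on potted plants, 2–18 cm, 1–4 leaves; greenhouse.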

[11] = test system: morningglory (Ipomoea coccinea); assay: Test C pre-/postemergence: morningglory
Outline: as §2

[12] = Postemergence, 31 g ai/ha, scale 0 to 100 (0 no effect, 100 complete control)
[13] = Postemergence, 62 g ai/ha, scale 0 to 100 (0 no effect, 100 complete control)
[14] = Postemergence, 125 g ai/ha, scale 0 to 100, 0 no effect, 100 complete control
[15] = Postemergence, 250 g ai/ha, scale 0 to 100
[16] = Preemergence, 31 g ai/ha, scale of 0 to 100, 0 is no effect, 100 is complete control
[17] = Preemergence, 62 g ai/ha, scale of 0 to 100, 0 is no effect, 100 is complete control
[18] = Preemergence, 125 g ai/ha, scale 0 to 100, 0 no effect, 100 complete control
[19] = Preemergence, 250 g ai/ha, scale 0 to 100, 0 no effect, 100 complete control

Cc1nn(-c2ccc(F)cc2)nc1Oc1ccnc(C(F)(F)F)c1 [Compound 129, 4-[[2-(4-fluorophenyl)-5-methyl-2H-1,2,3-triazol-4-yl]oxy]-2-(trifluoromethyl)pyridine]
pest or weed control at 125 g/ha ([1]; post-emergence, Postemergence, 0 to 100 scale, 0 is no effect, 100 is complete control, read-out: Foxtail, Giant plant response rating): 90%
pest or weed control at 500 g/ha ([1]; post-emergence, Postemergence, visual rating on 0 to 100 scale (0 no effect, 100 complete control), approximately ten days, read-out: Foxtail, Giant plant response rating): 90%
pest or weed control at 125 g/ha ([1]; pre-emergence, Preemergence, 0 to 100 scale where 0 is no effect and 100 is complete control, read-out: Plant response rating, Foxtail, Giant): 100%
pest or weed control at 500 g/ha ([1]; pre-emergence, Preemergence, 0 to 100 scale (0 no effect, 100 complete control), read-out: Plant response rating, Foxtail, Giant): 100%
Plant response rating, Wheat [2, 12]: 20
Plant response rating, Wheat [2, 13]: 25
Plant response rating, Wheat [2, 14]: 30
Plant response rating, Wheat [2, 15]: 40
Plant response rating, Wheat [2, 16]: 0
Plant response rating, Wheat [2, 17]: 20
Plant response rating, Wheat [2, 18]: 30
Plant response rating, Wheat [2, 19]: 60
Plant response rating, Corn (corn (Zea mays); [12]): 10
Plant response rating, Corn (corn (Zea mays); [13]): 15
Plant response rating, Corn (corn (Zea mays); [14]): 40
Plant response rating, Corn (corn (Zea mays); [15]): 65
Plant response rating, Corn (corn (Zea mays); [16]): 0
Plant response rating, Corn (corn (Zea mays); Preemergence, 62 g ai/ha, scale 0 to 100, 0 no effect, 100 complete control): 10
Plant response rating, Corn (corn (Zea mays); [18]): 45
Plant response rating, Corn (corn (Zea mays); [19]): 65
Plant response rating, Johnsongrass [3, 12]: 5
Plant response rating, Johnsongrass [3, 13]: 15
Plant response rating, Johnsongrass [3, 14]: 15
Plant response rating, Johnsongrass [3, 15]: 70
Plant response rating, Johnsongrass [3, 16]: 25
Plant response rating, Johnsongrass [3, 17]: 75
Plant response rating, Johnsongrass [3, 18]: 85
Plant response rating, Johnsongrass [3, 19]: 95
plant injury at 125 g/ha ([4]; post-emergence, Postemergence, 0 to 100 scale, 0 is no effect, 100 is complete control, read-out: Wheat plant response rating): 20%
plant injury at 500 g/ha ([4]; post-emergence, Postemergence, visual rating on 0 to 100 scale (0 no effect, 100 complete control), approximately ten days, read-out: Wheat plant response rating): 30%
plant injury at 125 g/ha ([4]; pre-emergence, Preemergence, 0 to 100 scale where 0 is no effect and 100 is complete control, read-out: Plant response rating, Wheat): 10%
plant injury at 500 g/ha ([4]; pre-emergence, Preemergence, 0 to 100 scale (0 no effect, 100 complete control), read-out: Plant response rating, Wheat): 50%
pest or weed control at 125 g/ha ([5]; post-emergence, Postemergence, 0 to 100 scale, 0 is no effect, 100 is complete control, read-out: Pigweed plant response rating): 100%
pest or weed control at 500 g/ha ([5]; post-emergence, Postemergence, visual rating on 0 to 100 scale (0 no effect, 100 complete control), approximately ten days, read-out: Pigweed plant response rating): 100%
pest or weed control at 125 g/ha ([5]; pre-emergence, Preemergence, 0 to 100 scale where 0 is no effect and 100 is complete control, read-out: Plant response rating, Pigweed): 100%
pest or weed control at 500 g/ha ([5]; pre-emergence, Preemergence, 0 to 100 scale (0 no effect, 100 complete control), read-out: Plant response rating, Pigweed): 100%
pest or weed control at 125 g/ha ([6]; post-emergence, Postemergence, 0 to 100 scale, 0 is no effect, 100 is complete control, read-out: Morningglory plant response rating): 100%
pest or weed control at 500 g/ha ([6]; post-emergence, Postemergence, visual rating on 0 to 100 scale (0 no effect, 100 complete control), approximately ten days, read-out: Morningglory plant response rating): 100%
pest or weed control at 125 g/ha ([6]; pre-emergence, Preemergence, 0 to 100 scale where 0 is no effect and 100 is complete control, read-out: Plant response rating, Morningglory): 50%
pest or weed control at 500 g/ha ([6]; pre-emergence, Preemergence, 0 to 100 scale (0 no effect, 100 complete control), read-out: Plant response rating, Morningglory): 60%
pest or weed control at 125 g/ha ([7]; post-emergence, Postemergence, 0 to 100 scale, 0 is no effect, 100 is complete control, read-out: Barnyardgrass plant response rating): 90%
pest or weed control at 500 g/ha ([7]; post-emergence, Postemergence, visual rating on 0 to 100 scale (0 no effect, 100 complete control), approximately ten days, read-out: Barnyardgrass plant response rating): 90%
pest or weed control at 125 g/ha ([7]; pre-emergence, Preemergence, 0 to 100 scale where 0 is no effect and 100 is complete control, read-out: Plant response rating, Barnyardgrass): 100%
pest or weed control at 500 g/ha ([7]; pre-emergence, Preemergence, 0 to 100 scale (0 no effect, 100 complete control), read-out: Plant response rating, Barnyardgrass): 100%
Plant response rating, Nutsedge, Yellow [8, 12]: 0
Plant response rating, Nutsedge, Yellow [8, 13]: 0
Plant response rating, Nutsedge, Yellow [8, 14]: 0
Plant response rating, Nutsedge, Yellow [8, 15]: 0
Plant response rating, Nutsedge, Yellow [8, 16]: 0
Plant response rating, Nutsedge, Yellow [8, 17]: 0
Plant response rating, Nutsedge, Yellow [8, 18]: 0
Plant response rating, Nutsedge, Yellow [8, 19]: 5
Plant response rating, Velvetleaf [9, 12]: 45
Plant response rating, Velvetleaf [9, 13]: 45
Plant response rating, Velvetleaf [9, 14]: 80
Plant response rating, Velvetleaf [9, 15]: 100
Plant response rating, Velvetleaf [9, 16]: 0
Plant response rating, Velvetleaf [9, 17]: 10
Plant response rating, Velvetleaf [9, 18]: 45
Plant response rating, Velvetleaf [9, 19]: 95
Plant response rating, Chickweed ([10]; 31 g ai/ha, scale 0 to 100 (0 no effect, 100 complete control)): 15
Plant response rating, Chickweed ([10]; 62 g ai/ha, scale 0 to 100 (0 no effect, 100 complete control)): 45
Plant response rating, Chickweed ([10]; 125 g ai/ha, scale 0 to 100, 0 no effect, 100 complete control): 80
Plant response rating, Chickweed ([10]; 250 g ai/ha, scale 0 to 100): 98
Plant response rating, Morningglory [11, 12]: 50
Plant response rating, Morningglory [11, 13]: 55
Plant response rating, Morningglory [11, 14]: 65
Plant response rating, Morningglory [11, 15]: 75
Plant response rating, Morningglory [11, 16]: 0
Plant response rating, Morningglory [11, 17]: 20
Plant response rating, Morningglory [11, 18]: 60
Plant response rating, Morningglory [11, 19]: 65
